Reference: BindingDB's records for doi:10.1016/j.bioorg.2017.03.014 (University of Karachi, 2017)

Experiments:
Carbonic anhydrase 2 [1] = target: T1, Carbonic anhydrase 2 (Bos taurus, UniProt P00921); assay: Carbonic Anhydrase II Inhibition Assay; details: pH 7.4; 25 °C
Description: In this assay, 4-nitrophenyl acetate (4-NPA), a colorless compound, was hydrolyzed to 4-nitrophenol and […]. The reaction was followed by measuring the formation of 4-nitrophenol, a yellow colored compound. The reaction was performed at 25 °C inbuffer containing HEPES and Tris-HCl at a total concentration of 20 mM and pH of 7.4 for each sample. The reaction mixture contained 140 μL of the HEPES-tris solution, 20 μL of freshly prepared aqueous solution of purified bovine erythrocyte CA-II (0.1 mg/mL of deionized water for 96-well), 20 μL of test compound in DMSO (10% final concentration), 20 μL of substrate 4-NPA at a concentration of 0.7 mM diluted in ethanol. The reaction was initiated by addition of 4-NPA after 15 min incubation of test compound, and each compound was tested 3-times at different concentrations. In this assay, the reaction was performed using 96-well plates.

Carbonic anhydrase 2 [2] = target: T1, Carbonic anhydrase 2; assay: Carbonic Anhydrase II Kinetic Assay; details: pH 7.4
Description: Kinetic studies were performed by using different concentration of inhibitors over different concentrations of substrate (4-NPA) such as 0.175, 0.35, 0.70 and 1.40 mM. The enzyme 0.2 mg/mL concentration for each well was used after dissolving in de-ionized water. HEPES-tris ammonia was used as buffer at pH of 7.4. The change in absorbance was measured by keeping the 96-well flat bottom plate in ELISA reader (Spectra max 384, Molecular Devices USA) after addition of substrate for a period of 30 min at 25 °C with 1 min interval.

T1 sequence (P00921 whole entry): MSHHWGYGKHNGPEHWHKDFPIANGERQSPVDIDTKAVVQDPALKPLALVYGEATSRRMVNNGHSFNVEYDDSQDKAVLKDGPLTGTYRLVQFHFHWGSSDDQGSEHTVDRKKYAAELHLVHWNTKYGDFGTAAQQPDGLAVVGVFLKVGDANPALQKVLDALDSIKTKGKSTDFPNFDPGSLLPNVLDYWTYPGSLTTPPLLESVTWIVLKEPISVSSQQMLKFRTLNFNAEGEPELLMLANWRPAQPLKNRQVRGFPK

| IC50 (Carbonic anhydrase 2 [1]) [nM] | Ki (Carbonic anhydrase 2 [2]) [nM] | Compound |
| --- | --- | --- |
| 2670 |  | O=C(N/N=C/c1ccc(Cl)cc1Cl)N/N=C/c1ccc(Cl)cc1Cl [N'',N'''-Bis[(E)-(2,4-dichlorophenyl)methylidene]carbonic dihydrazide (8)] |
| 2330 | 4120 | O=C(N/N=C/c1ccccc1Cl)N/N=C/c1ccccc1Cl [N'',N'''-Bis[(E)-(2-chlorophenyl)methylidene]carbonic dihydrazide (7)] |
| 2320 | 2520 | O=C(N/N=C/c1ccc(Br)cc1)N/N=C/c1ccc(Br)cc1 [N'',N'''-Bis[(E)-(4-bromophenyl)methylidene]carbonic dihydrazide (4)] |

Second part, the molecule before the results:

| Compound | IC50 (Carbonic anhydrase 2 [1]) [nM] | Ki (Carbonic anhydrase 2 [2]) [nM] |
| --- | --- | --- |
| O=C(N/N=C/c1c(Cl)cccc1Cl)N/N=C/c1c(Cl)cccc1Cl [N'',N'''-Bis[(E)-(2,6-dichlorophenyl)methylidene]carbonic dihydrazide (9)] | 1460 | 1780 |
| O=C(N/N=C/c1ccccc1Br)N/N=C/c1ccccc1Br [N'',N'''-Bis[(E)-(2-bromophenyl)methylidene]carbonic dihydrazide (5)] | 3960 |  |
| O=C(N/N=C/c1cc([N+](=O)[O-])ccc1Cl)N/N=C/c1cc([N+](=O)[O-])ccc1Cl [N'',N'''-Bis[(E)-(2-chloro-5-nitrophenyl)methylidene]carbonic dihydrazide (3)] | 1370 | 3580 |
| O=C(N/N=C/c1ccccc1[N+](=O)[O-])N/N=C/c1ccccc1[N+](=O)[O-] [N'',N'''-Bis[(E)-(2-nitrophenyl)methylidene]carbonic dihydrazide (2)] | 1850 | 1810 |
| O=C(N/N=C/c1ccc([N+](=O)[O-])cc1)N/N=C/c1ccc([N+](=O)[O-])cc1 [N'',N'''-Bis[(E)-(4-nitrophenyl)methylidene]carbonic dihydrazide (1)] | 1330 | 2350 |
